{"source": "paper PMC9984387", "about": "“The dynamic nature of netrin-1 and the structural basis for glycosaminoglycan fragment-induced filament formation” (Nature Communications, 2023)", "biological_target": "NET1ΔC (Gallus gallus, UniProt Q90922)", "assay": "X-ray crystal structure (native crystals soaked in SOS)", "assay_type": "binding", "conditions": "10 mM SOS soak 5-7 days; crystals from PEG 8000, CHES pH 9.5; one SOS per monomer, two sites SOSab and SOScd in LE-2 subdomain", "data": [{"smiles": "O=S(=O)(O)OC[C@H]1O[C@@](COS(=O)(=O)O)(O[C@H]2O[C@H](COS(=O)(=O)O)[C@@H](OS(=O)(=O)O)[C@H](OS(=O)(=O)O)[C@H]2OS(=O)(=O)O)[C@@H](OS(=O)(=O)O)[C@@H]1OS(=O)(=O)O", "note": "[SOS, sucrose-octasulfate]", "values": [{"measurement": "X-ray crystal structure (native crystals soaked in SOS)", "value": "in complex with one sucrose-octasulfate molecule bound per monomer"}]}]}
